Results taken from patent publication US9320723B2, “Methods of treating thyroid eye disease” (University of Rochester, priority 2010, dated 2016).

Tests used:
HMC-1 cells = assay: Measurement of PGD2 produced by mast cells (PGD2-MOX EIA); assay type: cell-based, human; conditions: HQL-79 100 μM 60 minutes, then A23187
Protocol: HMC-1 cells (1×10^6/well) were seeded into 6-well plates and cultured in IMDM medium with 5% FBS in the absence or presence of HQL-79 (H-PGDS inhibitor, 100 μM) at 37° C. for 60 minutes. The cells were then washed and resuspended in RPMI 1640 medium with 0.5% FBS. After 2 hours incubation, the cells were stimulated with 10 μM calcium ionophore A23187 for 30 minutes. The culture media were collected and PGD2 in the supernatants was quantified by PGD2-MOX EIA kits (Cayman Chemical).

[1] = tested on: orbital fibroblasts co-cultured with HMC-1 cells; assay: Co-culture of HMC-1 mast cells with orbital fibroblasts, HA ELISA; assay type: cell-based, human; conditions: HMC-1 cells pretreated with HQL-79, ratio 20:1, compared to vehicle
Protocol: HMC-1 mast cells were allowed to proliferate in Iscove's Modified Dulbecco's Medium (IMDM) enriched with 5% FBS. Co-cultures were initiated by introducing HMC-1 cells to confluent cultures of fibroblasts as previously described (24). Mast cells were washed with RPMI-1640 medium (0.5% FBS) once before addition to the fibroblasts (1:1 ratio, unless otherwise specified). After 4 hours, the media and HMC-1 cells were removed by gently rinsing in PBS and fresh RPMI-1640 medium (0.5% FBS) was used to cover the cells. Alternatively, fibroblasts and mast cells were co-cultured in a transwell system (0.4 μm; Greiner Bio-one, New York, N.Y.) with fibroblasts being cultured on the bottom and the mast cells in the top chamber. The ratio of mast cells to fibroblasts was varied from 5:1 to 20:1.
Aliquots of culture medium were removed at indicated time points, centrifuged (5 min, 8,000×g at 4° C.) and HA levels quantified by enzyme-linked immunosorbent assay (ELISA) according to the manufacturer's protocol (R&D Systems). Briefly, samples were incubated in HA-binding protein (HABP)-coated microwells, allowing HA in samples to react with the immobilized HABP. […] After the last wash, the chromogenic substrate was added and HA levels were determined using a Varioskan Flash plate reader (Thermo Fisher Scientific, Milford, Mass.).

[2] = tested on: human orbital fibroblasts; assay: Quantitation of secreted, pericellular and intracellular HA by ELISA, TGF-β1 treatment; assay type: cell-based
Protocol: Confluent monolayers of orbital fibroblasts were serum starved in 0.5% FBS RPMI-1640 medium for three days and pretreated with different concentrations of Pio or Rosi for 1 hour and then treated with or without 2 ng/ml TGF-β1 for 24 hours. After treatments, an aliquot of culture medium (secreted HA) was removed and centrifuged at 8,000×g at 4° C. for 5 minutes and the supernatant was saved for later analysis. The cells were washed twice with PBS and treated with 0.25% trypsin-EDTA solution (GIBCO, Invitrogen) at 37° C. for 5 minutes, the reaction was stopped by addition of culture medium and cell number was determined using a hemocytometer. The cells were then centrifuged and the supernatant was collected and incubated at 100° C. for 10 minutes to inactivate trypsin activity. This supernatant was saved for pericellular HA detection. The cell pellet was washed with PBS once and digested with 120 μg/ml proteinase K in 0.1% SDS/0.1 M Tris-HCl (pH 7.6) at 37° C. for 1 hour, and proteinase K was inactivated by incubation at 100° C. for 10 min. The cell lysate was centrifuged and supernatant analyzed for intracellular HA.
The amount of HA in each extract (secreted HA, pericellular HA and intracellular HA) was measured by ELISA based on the specific interaction of HA with HA binding protein (HABP). The HA detection kit was purchased from R&D system (Minneapolis, Minn.). Briefly, diluted samples were incubated in HABP-coated microwells, allowing HA present in samples to react with the immobilized HABP. After extensive washing, biotinylated HABP was added to the microwells to form complexes with bound HA. Following another round of washing, streptavidin conjugated horseradish peroxidase was added. After a brief incubation period and washing, chromogenic substrate was added and HA levels were determined using a Varioskan Flash plate reader (Thermo Fisher Scientific, Milford, Mass.). A fraction of the samples were pretreated with Streptomyces hyaluronidase (2 U/ml at 37° C. for 2 hour) before subjected to the ELISA assay as a negative control. Furthermore, an additional 50 ng/ml (final concentration) of free soluble HA was added to a fraction of the cell lysate samples to confirm that there are no inhibitory factors present and that the assays show the expected additivity when a known amount of exogenous HA is included.

[3] = tested on: human orbital fibroblasts; assay: qRT-PCR of HAS mRNA after TGF-β1 with or without Pio or Rosi; assay type: cell-based; conditions: 2 ng/ml TGF-β1, 6 hours
Excerpt: RNA was isolated from orbital fibroblast strains using the RNeasy Mini kit according to the manufacturer's protocol (Qiagen, Valencia, Calif.) and reverse transcripted to cDNA using iScript cDNA synthesis kit (Bio-Rad, Hercules, Calif.). Primers for human HAS1, 2, 3 and 7S as well as qRT-PCR method to detect relative abundance of mRNA are identified supra. Primers for human PPARγ1 (NM138711) and PPARγ 2 (NM015869) mRNA were 5′-AAAGAAGCCGA-CACTAAACC-3′ (SEQ ID NO:3) (sense), 5′-CTTCCATTACGG-AGAGATCC-3′ (SEQ ID NO:4) (antisense) and, 5′-GCGATTC-CTTCACTGATAC-3′ (SEQ ID NO:5) (sense), 5′-CTTCCATT-ACGGAGAGATCC-3′ (SEQ ID NO:6) (antisense), respectively.

[4] = tested on: human peripheral blood T cells adhering to orbital fibroblasts; assay: T cell adhesion assay; assay type: cell-based; conditions: fibroblasts treated with 2 ng/ml TGF-β1, 24 hours
Protocol: Confluent orbital fibroblasts in a 96-well plate were serum starved and incubated with different concentrations of Pio or Rosi treated with or without 2 ng/ml TGF1 for 24 hours. In some cultures, orbital fibroblasts were treated with Streptomyces hyaluronidase (100 mU/ml at 37° C. for 1 hour) prior to the adhesion assay to deplete endogenous HA. Adhesion Test. Immediately before the adhesion assay, the conditioned medium of orbital fibroblasts was removed to eliminate treatments and secreted ECM. 1×10^5/well of Calcein AM labeled T cells were added to a 96-well plate with a confluent orbital fibroblast monolayer and allowed to adhere for 90 min at 4° C. as previously described. Plates were washed three times with the addition of 200 ul of PBS followed by plate inversion and gentle tapping to remove the wash solution. Fluorescence was measured with an excitation of 485 nm and detection of 535 nm, in a Varioskan Flash plate reader (Thermo Electron Corporation).

orbital fibroblasts [5] = assay: Immunofluorescence staining of HA with biotinylated HABP; assay type: cell-based, human; conditions: 2 ng/ml TGF-β1, 24 hours
Protocol: Orbital fibroblasts were cultured in 8-chamber slides (BD REF354108) and fixed in room temperature 3% paraformaldehyde in PBS and stained with 1 μg/ml biotinylated HABP (Seikagaku, Cape Cod) followed by Cy3-conjugated streptavidin (Jackson laboratories, West Grove, Pa.). F-actin was stained with Phalloidin (Molecular Probes). In some cultures, orbital fibroblasts were treated with Streptomyces hyaluronidase prior to staining T cells were stained with an anti-CD3 monoclonal antibody (clone UCHT, SouthernBiotech, Birmingham, Ala.) followed by a goat anti-mouse antibody labeled with Alexa-488 (Molecular Probes). DAPI (10 μg/ml, Anaspec, San Jose, Calif.) was used for nuclear staining.

[6] = tested on: human orbital fibroblasts; assay: HA ELISA of culture medium of orbital fibroblasts treated with prostaglandins or drugs; assay type: cell-based; conditions: 18 hours, strains OF1 and OF2
Excerpt: Orbital fibroblasts: Primary orbital fibroblasts were isolated from TED patients undergoing orbital decompression surgery. The protocols for orbital biopsy and blood sample, described below, were approved by the Internal Review Board and informed, written consent was obtained from all patients. […] Fibroblasts were characterized by their adherent morphology, expression of vimentin and types I and III collagen and absence of CD45, factor VIII or cytokeratin. Fibroblasts were used at the earliest passage possible (between passages 4 to 10). Human T cells: Lymphocytes were isolated from 60 ml of peripheral blood obtained during orbital decompression surgery. Whole blood was separated over a Ficoll-Paque Plus Gradient (Amersham Biosciences, Piscataway, N.J.) to obtain peripheral blood mononuclear cells. T cells were enriched using CD3/CD28 T cell Expander beads (Invitogen). […] After that, 50 U/ml of recombinant interleukin-2 (rIL-2) was added to the culture and incubated for another 2-3 days. On day 5, cells were diluted to a concentration of 0.5×10^6 cells/ml in medium containing 50 U/ml rIL-2 and incubated for an additional 3-7 days. Cellular purity was assessed using an anti-CD3-PE antibody (BD Biosciences, San Jose, Calif.) and analyzed on a FACSCalibur flow cytometer (BD Biosciences).
Aliquots of culture medium were removed at indicated time points, centrifuged (5 min, 8,000×g at 4° C.) and HA levels quantified by enzyme-linked immunosorbent assay (ELISA) according to the manufacturer's protocol (R&D Systems). Briefly, samples were incubated in HA-binding protein (HABP)-coated microwells, allowing HA in samples to react with the immobilized HABP. After the removal of unbound molecules by washing, biotinylated-HABP was added to the microwells. Following a second wash, streptavidin-conjugated to horseradish peroxidase was added. After the last wash, the chromogenic substrate was added and HA levels were determined using a Varioskan Flash plate reader (Thermo Fisher Scientific, Milford, Mass.).

[7] = tested on: human orbital fibroblasts (OF1 and OF2); assay: Agarose gel electrophoresis of HA in conditioned media; assay type: cell-based; conditions: 5 μM PGD2, 18 hours
Protocol: Fibroblasts were cultured to confluence in 10 cm^2 dishes in RPMI containing 10% FBS, followed by RPMI with 2% FBS for 3 days. Fibroblasts were then treated with 5 μM PGD2 or control (DMSO) for 18 hours. Cell culture supernatant was centrifuged (5 min at 8,000×g at 4° C.) and half of the sample digested with 1 TRU/ml Streptomyces hyaluronidase (Sigma) at 37° C. for 4 hours; the remainder of the sample was mock-digested. Following digestion with proteinase K (120 μg/ml) (Qiagen, Valencia, Calif.) at 37° C. for 4 hours, the samples were concentrated using Vivaspin 10,000 Da cut-off ultrafiltration spin column (Sartorius Stedim Biotech, Goettingen, Germany), washed with PBS and analyzed by 1% agarose electrophoresis. Select-HA HiLadder (Hyalose LLC, Oklahoma City, Okla.) and blue dextran (Sigma; molecular weight 2×10^6 Da) were also run as standards. The gel was stained with 0.005% Stains-All (Sigma) in 50% ethanol overnight at room temperature before being scanned on an HP scanner.

[8] = tested on: orbital fibroblast strains OF1 and OF2; assay: qRT-PCR of hyaluronidase mRNA (HYAL1-3); assay type: cell-based, human; conditions: 5 μM PGD2, 4 hours
Protocol: (§1) RNA was isolated from orbital fibroblasts or T cells using an RNeasy Mini kit (Qiagen). RNA was reverse transcribed to cDNA using iScript cDNA synthesis kit (Bio-Rad) and diluted 5-fold in RNase-free H2O. Forward and reverse primers for each gene are shown in Table I. RT-PCR: The PCR reaction was performed using Qiagen Fast Cycling PCR kit for 30 cycles in a Bio-Rad thermal cycler. The PCR product was visualized on a 5% acrylamide gel stained with ethidium bromide. Amplifications without reverse transcriptase were carried out as negative controls. qRT-PCR: qRT-PCR was performed in a Bio-Rad iCycler containing B-R SYBR Green SuperMix for IQ (Quanta Biosciences, Gaithersburg, Md.). Efficiency of the amplification was determined to be >90%.
(§2) Amplification of 7S ribosomal RNA was carried out for each cDNA (in triplicate) for normalization. Threshold cycle number (Ct) of amplification in each sample was determined by Bio-Rad software and the relative mRNA abundance was calculated as the Ct for amplification of a gene-specific cDNA minus average Ct for 7S, expressed as a power of 2; i.e., 2^ΔCt.

[9] = tested on: human orbital fibroblasts; assay: qRT-PCR of HAS mRNA after PGD2 or BW245C; assay type: cell-based; conditions: 5 μM PGD2, 2 hours
Protocol: as §1, §2

orbital fibroblasts [10] = assay: Measurement of intracellular cAMP (TR-FRET immunoassay); assay type: cell-based, human; conditions: PGD2 5 μM, BW245C 10 μM, up to 60 minutes
Protocol: cAMP levels were quantified using a time-resolved fluorescence resonance energy transfer (TR-FRET) immunoassay from Perkin Elmer (Waltham, Mass.) according to the manufacturer's protocol. Briefly, orbital fibroblasts were detached with a non-enzymatic cell dissociation solution (Versene, Invitrogen) and re-suspended in Stimulation Buffer (pH 7.4; 1×HBSS buffer containing 5 mmol/L HEPES buffer and 0.01%-0.1% BSA) containing 0.5 mM IBMX and labeled with the Alexa Fluor® 647-labeled anti-cAMP antibody. Finally, the cells were incubated with drugs at the indicated times. Following addition of the detection buffer, the amount of cAMP signal was measured.

[11] = tested on: human orbital fibroblasts; conditions: previously reported (Feldon et al. 2006); cited from earlier work
[12] = 2 ng/ml TGF-β1, 24 hours, strain #1, compared to vehicle

Compound: c1ccc(C(OC2CCN(CCCc3nnn[nH]3)CC2)c2ccccc2)cc1 [HQL-79, 4-benzhydryloxy-1-[3-(1H-tetrazol-5-yl)-propyl]-piperidine]
- level of PGD2 in activated HMC-1 cells (HMC-1 cells): significantly reduced the level of PGD2 in activated HMC-1 cells
- production of HA by orbital fibroblasts in transwell co-culture [1]: significantly attenuated the production of HA by orbital fibroblasts

Compound: TGF-β1: Recombinant human TGF-β1 purchased from Calbiochem
- intracellular HA levels ([2]; 2 ng/ml TGF-β1, 24 hours): had no effect on intracellular HA levels
- increase of pericellular HA levels [2, 12]: 8.34±1.33 fold
- increase of secreted HA levels [2, 12]: 12.16±0.15 fold
- share of newly synthesized HA secreted into the ECM ([2]; TGF-β1 mediated): about 70%
- secreted HA compared with pericellular HA ([2]; fibroblasts treated with TGF-β1, strain #1): 2.31±0.36 fold
- HAS3 mRNA levels [3]: remained unchanged
- increase of HAS1 mRNA levels [3]: about 50 fold
- increase of HAS2 mRNA levels [3]: ~6 fold
- adhesion of T cells to orbital fibroblasts [4]: significantly increased compared to untreated control fibroblasts
- HA staining (immunofluorescence) (orbital fibroblasts [5]): HA staining is more pronounced and forms microvillus-like protrusions

Compound: CCCCC[C@H](O)/C=C/[C@H]1C(=O)C[C@H](O)[C@@H]1C/C=C\CCCC(=O)O [PGD2]
- concentration yielding the largest induction of HA [6]: 5 µM
- HA synthesis (HA ELISA) ([6]; increasing concentrations): significantly increased HA synthesis by both fibroblast strains in a dose-dependant manner
- HA in conditioned media (agarose gel) [7]: increased HA compared with vehicle
- HYAL1, HYAL2 and HYAL3 mRNA ([8]; strain OF1): significant induction in HYAL1, HYAL2 and HYAL3 mRNA
- hyaluronidase mRNA expression ([8]; strain OF2): failed to significantly increase hyaluronidase mRNA expression
- HAS1, HAS2 and HAS3 mRNA [9]: the mRNA for all three HAS isoforms increased significantly
- increase in HAS1 mRNA ([9]; compared to time 0): 2807±213
- intracellular cAMP production (orbital fibroblasts [10]): significantly increased intracellular cAMP production within 15 to 30 minutes
- adipogenesis in human orbital fibroblasts [11]: induce adipogenesis
